{"source": "paper PMC4459817", "about": "“Vasculotide reduces endothelial permeability and tumor cell extravasation in the absence of binding to or agonistic activation of Tie2” (EMBO Molecular Medicine, 2015)", "test_system": "Tie2− tumor cells (LM2-4luc)", "test": "MTS cell viability assay, tumor cells", "assay_type": "cell-based, human", "conditions": "48 h MTS; Supplementary Fig S2 (VT 0.1 to 1000 ng/mL)", "experimental": "TCs were cultured in DMEM High Glucose basal media supplemented with 5% FBS and grown humidified incubators at 37 °C, 21%O2 and 5%CO2 unless otherwise specified. LM2-4 luc is a highly metastatically aggressive variant of the human breast carcinoma MDA-MB-231 cell line (derived through serial in vivo selection of lung metastases from orthotopic implantations in immunodeficient mice) that has been transfected with a firefly luciferase vector (Man et al, 2007; Ebos et al, 2009). HT29luc is a human colon carcinoma cell line also transfected with the luciferase gene (Hackl et al, 2013). SN12luc refers to a luciferase-tagged and highly metastatic clone of a human renal cell carcinoma cell line, SN12-PM6-L1luc (Jedeszko et al, 2015). MeWo is a human melanoma cell line (Ebos et al, 2009).\n2. Endothelial cells (ECs) […]\n5,000 LM2-4luc or HMVEC-LBl cells, in 100uL of their regular growth media, were seeded per well on a 96-well plate. […] Absorbances were read at 490nm and background-corrected with reference 560nm readings or acellular treatment-only […]\n4. […] Protein concentrations in TC-CM vs. control media were measured using: a Quantikine ELISA kit (R&D Systems DVE00) for human VEGF; a FlowCytomix Multiplex kit (eBioscience BMS810FF) for human IL-6 and IL-8; and a BCA protein assay kit (Thermo Scientific) for total protein."}
{"sequence": "CHHHRHSF [Vasculotide, 4-armed maleimide-functionalized polyethylene glycol (PEG) backbone to link together four cysteine-capped T7 peptides, that is, CHHHRHSF]", "values": [{"measurement": "cytotoxic effect on TCs / viability", "result": "no direct cytotoxic effect"}]}
